Values joined by “and” are separate entries in the source; they are usually repeats but may differ in a detail not shown here. Equal values may be shown once. Inconclusive results and toxic doses are left out. Rule for the calls: active = survival T/C of 150% or more; inactive = T/C below 125% in these data. Peptide text beside a SMILES is read from it. * marks the point of attachment. Cbz = O=C(OCc1ccccc1)*
System: P388 leukemia ip, CD2F1 mice, survival T/C
Test: NCI In Vivo Anticancer Drug Screen. Data for tumor model P388 Leukemia (intraperitoneal) in CD2F1 (CDF1) mice
Conditions: endpoint: median survival time, higher = longer survival
In short: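 Mice carrying the transplanted tumor received test compound or vehicle. Survival was recorded in each group, and the value is the treated-group measurement divided by that of the vehicle-treated control group.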

[1] = dose: 100.0 mg/kg/injection, schedule: Q04DX003 (ip), vehicle: saline with Tween-80
[2] = dose: 200.0 mg/kg/injection, schedule: Q04DX003 (ip), vehicle: saline with Tween-80
[3] = dose: 25.0 mg/kg/injection, schedule: Q01DX009 (ip), vehicle: saline with Tween-80
[4] = dose: 50.0 mg/kg/injection, schedule: Q01DX009 (ip), vehicle: saline with Tween-80
[5] = dose: 100.0 mg/kg/injection, schedule: Q01DX009 (ip), vehicle: saline with Tween-80
[6] = dose: 200.0 mg/kg/injection, schedule: Q01DX009 (ip), vehicle: saline with Tween-80
[7] = dose: 50.0 mg/kg/injection, schedule: Q01DX009 (ip), vehicle: suspension in saline
[8] = dose: 200.0 mg/kg/injection, schedule: Q01DX009 (ip), vehicle: suspension in saline
[9] = dose: 50.0 mg/kg/injection, schedule: Q01DX005 (ip), vehicle: saline
[10] = dose: 100.0 mg/kg/injection, schedule: Q01DX005 (ip), vehicle: saline
[11] = dose: 50.0 mg/kg/injection, schedule: Q01DX005 (ip), vehicle: saline with Tween-80
[12] = dose: 100.0 mg/kg/injection, schedule: Q01DX005 (ip), vehicle: saline with Tween-80
[13] = dose: 50.0 mg/kg/injection, schedule: Q01DX005 (ip), vehicle: Klucel (hydroxypropylcellulose) (HPC)
[14] = dose: 100.0 mg/kg/injection, schedule: Q01DX005 (ip), vehicle: Klucel (hydroxypropylcellulose) (HPC)
[15] = dose: 200.0 mg/kg/injection, schedule: Q01DX005 (ip), vehicle: Klucel (hydroxypropylcellulose) (HPC)
[16] = dose: 100.0 mg/kg/injection, schedule: Q01DX001 (ip), vehicle: saline with Tween-80
[17] = dose: 50.0 mg/kg/injection, schedule: Q01DX001 (ip), vehicle: Klucel (hydroxypropylcellulose) (HPC)
[18] = dose: 100.0 mg/kg/injection, schedule: Q01DX001 (ip), vehicle: Klucel (hydroxypropylcellulose) (HPC)
[19] = dose: 200.0 mg/kg/injection, schedule: Q01DX001 (ip), vehicle: Klucel (hydroxypropylcellulose) (HPC)

Measured: T/C

CCCCCC(C=O)C(O)(C(F)(F)F)C(F)(F)Cl (stereo unspecified)
inactive: dose: 50.0 mg/kg/injection, schedule: Q04DX003 (ip), vehicle: saline with Tween-80 100 % of control | [1] 100 % of control | [2] 109 % of control

Cc1c(O)c2c(c(O)c1Cc1ccc(CN)cc1)C(=O)c1ccccc1C2=O
inactive: dose: 12.5 mg/kg/injection, schedule: Q04DX003 (ip), vehicle: water 98 % of control | dose: 25.0 mg/kg/injection, schedule: Q04DX003 (ip), vehicle: water 90 % of control | dose: 50.0 mg/kg/injection, schedule: Q04DX003 (ip), vehicle: water 93 % of control | dose: 100.0 mg/kg/injection, schedule: Q04DX003 (ip), vehicle: water 103 % of control

O=S(CCCl)c1ccccc1 (stereo unspecified)
inactive: [3] 96 % of control | [4] 97 % of control | [5] 101 % of control | [6] 90 % of control

COC(=O)C1OC(SC(=N)N)C(OC(C)=O)C(OC(C)=O)C1OC(C)=O (stereo unspecified)
inactive: dose: 12.5 mg/kg/injection, schedule: Q01DX009 (ip), vehicle: water 101 % of control | dose: 25.0 mg/kg/injection, schedule: Q01DX009 (ip), vehicle: water 109 % of control | dose: 50.0 mg/kg/injection, schedule: Q01DX009 (ip), vehicle: water 107 % of control and 117 % of control

O=[N+]([O-])c1ccc(CS(=O)(=O)C(Cl)(Cl)Cl)o1
inactive: dose: 6.25 mg/kg/injection, schedule: Q01DX009 (ip), vehicle: saline 108 % of control and 112 % of control and 87 % of control | [7] 86 % of control | [8] 86 % of control

CCN(CC)Cc1c(C)[nH]c2ccccc2c1=O
inactive: [4] 109 % of control | [5] 118 % of control

N#CC(c1ccccc1)C1NC(C(=O)O)CS1 (stereo unspecified)
inactive: [7] 106 % of control | dose: 100.0 mg/kg/injection, schedule: Q01DX009 (ip), vehicle: suspension in saline 93 % of control | [8] 93 % of control

OCC1C2CCCC12 (stereo unspecified)
inactive: [4] 95 % of control | [5] 114 % of control | [6] 104 % of control

COc1cccc2c1C(=O)c1c(O)c3c(c(O)c1C2=O)C[C@@](O)(C(=O)COC(C)=O)C[C@@H]3OC1CC(N)C(O)C(C)O1 (stereo partly specified)
active: dose: 0.08 mg/kg/injection, schedule: Q01DX009 (ip), vehicle: saline sonified 200 % of control | dose: 1.5 mg/kg/injection, schedule: Q01DX009 (ip), vehicle: saline sonified 150 % of control

CCN(CC)CCOC1CCCCC1
inactive: [9] 105 % of control | [10] 98 % of control

OC(CCl)Cn1nnc2c3ccccc3ccc21 (stereo unspecified)
inactive: dose: 25.0 mg/kg/injection, schedule: Q01DX005 (ip), vehicle: saline with Tween-80 101 % of control | [11] 101 % of control | [12] 101 % of control | [1] 99 % of control | [2] 94 % of control

CC(OCc1ccccc1)C(NC(=O)OC(C)(C)C)C(=O)ON1C(=O)CCC1=O (stereo unspecified)
inactive: [13] 109 % of control | [14] 105 % of control | [15] 96 % of control

O=C1CCN2CO[C@H](c3ccccc3)C[C@@H]2C1
inactive: dose: 12.5 mg/kg/injection, schedule: Q01DX005 (ip), vehicle: Klucel (hydroxypropylcellulose) (HPC) 103 % of control | dose: 25.0 mg/kg/injection, schedule: Q01DX005 (ip), vehicle: Klucel (hydroxypropylcellulose) (HPC) 102 % of control | [13] 102 % of control

CCN(CC)CCSc1cc(C)c2ccc(N)nc2n1
inactive: dose: 60.0 mg/kg/injection, schedule: Q01DX005 (ip), vehicle: Klucel (hydroxypropylcellulose) (HPC) 100 % of control | dose: 120.0 mg/kg/injection, schedule: Q01DX005 (ip), vehicle: Klucel (hydroxypropylcellulose) (HPC) 106 % of control

O=C(O)C(=O)O.O=N[O-].[Co+3].[NH-]CC[N-]CC[NH-]
inactive: [3] 108 % of control | [4] 108 % of control

S=c1nc[nH]c2c1ncn2CN1CCCCC1
inactive: [4] 118 % of control | dose: 66.0 mg/kg/injection, schedule: Q01DX009 (ip), vehicle: saline sonified 122 % of control | dose: 150.0 mg/kg/injection, schedule: Q01DX009 (ip), vehicle: saline sonified 90 % of control

CC(Cc1ccccc1)N(C)C1=C(CCC#N)CC(C(C)(C)C)CC1 (stereo unspecified)
inactive: [9] 100 % of control | [10] 100 % of control

Ic1ccc(Nc2ncnc3sc4c(c23)CCCC4)cc1
inactive: [11] 111 % of control | [12] 94 % of control | dose: 200.0 mg/kg/injection, schedule: Q01DX005 (ip), vehicle: saline with Tween-80 92 % of control

CC(NC(=O)C(Cc1ccccc1)NC(=O)C(N)CCCN=C(N)N)C(=O)O (stereo not drawn) (H-Arg-Phe-Ala-OH; configuration not given here)
inactive: [9] 102 % of control | [10] 101 % of control | dose: 200.0 mg/kg/injection, schedule: Q01DX005 (ip), vehicle: saline 101 % of control

Nc1nncs1
active: dose: 80.0 mg/kg/injection, schedule: Q01DX005 (ip), vehicle: saline 172 % of control and 188 % of control
inactive: dose: 6.25 mg/kg/injection, schedule: Q01DX009 (ip), vehicle: water 107 % of control and 108 % of control and 94 % of control | dose: 7.5 mg/kg/injection, schedule: Q01DX009 (ip), vehicle: water 112 % of control | dose: 15.0 mg/kg/injection, schedule: Q01DX009 (ip), vehicle: water 101 % of control | dose: 20.0 mg/kg/injection, schedule: Q01DX005 (ip), vehicle: saline 103 % of control and 109 % of control | dose: 30.0 mg/kg/injection, schedule: Q01DX009 (ip), vehicle: water 117 % of control | dose: 40.0 mg/kg/injection, schedule: Q01DX005 (ip), vehicle: saline 122 % of control | dose: 120.0 mg/kg/injection, schedule: Q01DX009 (ip), vehicle: water 104 % of control | dose: 160.0 mg/kg/injection, schedule: Q01DX005 (ip), vehicle: saline 69 % of control

O=C(NC1CC1)c1ccccc1
inactive: [3] 96 % of control | [4] 100 % of control | [5] 87 % of control | [6] 87 % of control

CN1CCC/C1=C1/Cc2ccccc2C1=O
inactive: [13] 91 % of control | [14] 108 % of control

COc1c2c(c(N3CCCC3)c3c1C(=O)c1ccccc1C3=O)C(=O)CCC2
inactive: [16] 100 % of control | dose: 200.0 mg/kg/injection, schedule: Q01DX001 (ip), vehicle: saline with Tween-80 105 % of control | dose: 400.0 mg/kg/injection, schedule: Q01DX001 (ip), vehicle: saline with Tween-80 94 % of control

O=C1C(Cl)=C(NC(CO)(CO)CO)C(=O)c2ccccc21
inactive: dose: 25.0 mg/kg/injection, schedule: Q01DX001 (ip), vehicle: saline with Tween-80 92 % of control | dose: 50.0 mg/kg/injection, schedule: Q01DX001 (ip), vehicle: saline with Tween-80 93 % of control | [16] 101 % of control

COc1ccc(N=Cc2ccc(C(N)=S)cc2)cc1
inactive: [17] 107 % of control | [18] 102 % of control | [19] 98 % of control

CC1C(=O)C(C)C(c2ccc(Cl)cc2)OC1c1ccccc1 (stereo unspecified)
inactive: [17] 94 % of control | [18] 95 % of control | [19] 105 % of control

C=CCP1(C)=NP(OCC(F)(F)F)(OCC(F)(F)F)=NP(OCC(F)(F)F)(OCC(F)(F)F)=N1 (stereo unspecified)
inactive: [13] 99 % of control | [14] 101 % of control | [15] 92 % of control

COC(=O)C(NC(=O)C1CCCN1C(=O)OCc1ccccc1)C(C)C (stereo not drawn) (Cbz-Pro-Val-OMe; configuration not given here)
inactive: [4] 98 % of control | [5] 104 % of control | [6] 107 % of control

Cc1ccc2c(c1)nc1sc(C)cc(=O)n12
inactive: dose: 50.0 mg/kg/injection, schedule: Q01DX009 (ip), vehicle: Klucel (hydroxypropylcellulose) (HPC) 97 % of control | dose: 100.0 mg/kg/injection, schedule: Q01DX009 (ip), vehicle: Klucel (hydroxypropylcellulose) (HPC) 95 % of control | dose: 200.0 mg/kg/injection, schedule: Q01DX009 (ip), vehicle: Klucel (hydroxypropylcellulose) (HPC) 92 % of control

C[P+]1(C)CCCCC1
inactive: dose: 100.0 mg/kg/injection, schedule: Q01DX001 (ip), vehicle: saline 98 % of control | dose: 200.0 mg/kg/injection, schedule: Q01DX001 (ip), vehicle: saline 91 % of control

NNc1ccc2nccn2n1
inactive: dose: 6.25 mg/kg/injection, schedule: Q01DX009 (ip), vehicle: saline with Tween-80 95 % of control | dose: 12.5 mg/kg/injection, schedule: Q01DX009 (ip), vehicle: saline with Tween-80 101 % of control | [3] 94 % of control
